These results are taken from patent US9242929B2, “Compounds as diacylglycerol acyltransferase inhibitors” (GlaxoSmithKline Intellectual Property (No.2) Limited, priority 2011, dated 2016).

Molecules are shown by their SMILES.

The target of this assay is T1, Human DGAT1 (Homo sapiens, UniProt O75907).
T1 construct: made in house; host or cells: Sf9 insect cells (baculovirus), microsomes
T1 sequence (O75907 1-488): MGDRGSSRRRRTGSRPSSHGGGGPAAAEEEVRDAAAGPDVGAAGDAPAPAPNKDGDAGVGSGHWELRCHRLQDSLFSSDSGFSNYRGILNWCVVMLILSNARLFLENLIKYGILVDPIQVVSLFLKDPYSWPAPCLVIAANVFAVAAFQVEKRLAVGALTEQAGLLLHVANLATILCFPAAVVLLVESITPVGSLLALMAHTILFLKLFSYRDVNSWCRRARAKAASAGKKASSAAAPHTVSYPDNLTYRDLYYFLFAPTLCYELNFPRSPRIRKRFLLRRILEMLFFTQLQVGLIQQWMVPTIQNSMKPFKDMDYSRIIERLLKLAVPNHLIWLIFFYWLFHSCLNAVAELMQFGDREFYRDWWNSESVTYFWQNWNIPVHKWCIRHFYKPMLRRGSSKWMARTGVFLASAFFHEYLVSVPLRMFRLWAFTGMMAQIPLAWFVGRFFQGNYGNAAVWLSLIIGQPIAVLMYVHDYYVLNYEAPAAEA
Briefly: human DGAT1 fluorescence (CPM) assay, inhibition of CoA product formation. To be noted: human DGAT1 fluorescene (CPM) assay; microsomes from Sf9 insect cells; read-out: hDGAT IC50. It is filed as biochemical. On the procedure:
Human DGAT1 was expressed in Sf9 insect cells using a baculovirus expression system. Microsomes were prepared and used as enzyme for in vitro inhibition testing in either of two formats measuring production of coenzyme A or tridecanoylglycerol product, respectively. All steps were performed at 21-23° C. All data for DGAT1 inhibition by test compounds were collected under conditions where product formation was linear with reaction time.
An equal volume (10 uL) of 3× enzyme in buffer was added and the components incubated for 30 minutes pre-reaction incubation to allow enzyme and test compounds to attain binding equilibrium. […] Some assays were performed with inclusion of didecanoylglycerol in the pre-reaction incubation of test compound and enzyme. DGAT reactions (30 uL) were initiated upon addition of 10 uL of 3× substrate solution. Final reaction conditions consisted of 20 mM HEPES pH 7.5, 2 mM MgCl2, 1 mM CHAPS, 50 uM didecanoylglycerol, 3 uM decanoyl-CoA, 1 ug/mL microsomal protein, and 1% DMSO. Following a 60 minute reaction incubation, reactions were stopped and CoA product derivatized with 30 uL of buffer containing 10 uM {4-[4-(4-amino-7,7-dimethyl-7H-pyrimido[4,5-b][1,4]oxazin-6-yl)phenyl]cyclohexyl}acetic acid and 50 uM 7-diethylamino-3-(4′-maleimidylphenyl)-4-methylcoumarin (CPM). […] IC50s were fitted using GraphPad Prism to a sigmoidal dose response.
As a reminder, the IC50 is the concentration needed to halve the response being measured. On to `CCc1ccc(NC(=O)Nc2cnc(-c3ccc4c(c3)CCC(CC(=O)O)(CC(F)(F)F)C4=O)cn2)cc1` (stereo not shown) [Example 220], for which the concentration for half-maximal inhibition (IC50) was found to be 0.3 nM.

As for `O=C(O)CC1(CC(F)(F)F)CCc2cc(-c3cnc(NC(=O)Nc4cccc(Cl)c4)cn3)ccc2C1=O` (stereo not shown) [Example 223], the 50% inhibitory concentration (IC50) is 0.7 nM.

Regarding `O=C(O)CC1(CC(F)(F)F)CCc2cc(-c3ccc(NC(=O)Nc4cc(Cl)cc(Cl)c4)cc3)ccc2C1=O` (stereo not shown) [Example 224], the IC50 stood at 2.8 nM.

For the molecule `CCc1ccc(NC(=O)Nc2ccc(-c3ccc4c(c3)CCC(CC(=O)O)(CC(F)(F)F)C4=O)cc2)cc1` (stereo not shown) [Example 225], the IC50 came out at 1.2 nM.

For `O=C(O)CC1(CC(F)(F)F)CCc2cc(-c3ccc(NC(=O)NC4CCCCC4)cc3)ccc2C1=O` (stereo not shown) [Example 226], the IC50 was 6.1 nM.

As to `COC1(CC(=O)O)CCc2cc(-c3ccc(NC(=O)Nc4cccc(Cl)c4)cc3)ccc2C1=O` (stereo not shown) [Example 229], the IC50 amounted to 5.2 nM.

As for `O=C(O)CC1(CC(F)(F)F)CCc2cc(-c3cnc(NC(=O)NC4CCC4)cn3)ccc2C1=O` (stereo not shown) [Example 230], the half-inhibitory concentration (IC50) came to 27.5 nM.
